Assay results taken from PMC4820889 (Journal of Biomedical Research, 2015).

Molecular target: ABCC1 (MRP1) (Homo sapiens, UniProt P33527)
Sequence (P33527 whole entry): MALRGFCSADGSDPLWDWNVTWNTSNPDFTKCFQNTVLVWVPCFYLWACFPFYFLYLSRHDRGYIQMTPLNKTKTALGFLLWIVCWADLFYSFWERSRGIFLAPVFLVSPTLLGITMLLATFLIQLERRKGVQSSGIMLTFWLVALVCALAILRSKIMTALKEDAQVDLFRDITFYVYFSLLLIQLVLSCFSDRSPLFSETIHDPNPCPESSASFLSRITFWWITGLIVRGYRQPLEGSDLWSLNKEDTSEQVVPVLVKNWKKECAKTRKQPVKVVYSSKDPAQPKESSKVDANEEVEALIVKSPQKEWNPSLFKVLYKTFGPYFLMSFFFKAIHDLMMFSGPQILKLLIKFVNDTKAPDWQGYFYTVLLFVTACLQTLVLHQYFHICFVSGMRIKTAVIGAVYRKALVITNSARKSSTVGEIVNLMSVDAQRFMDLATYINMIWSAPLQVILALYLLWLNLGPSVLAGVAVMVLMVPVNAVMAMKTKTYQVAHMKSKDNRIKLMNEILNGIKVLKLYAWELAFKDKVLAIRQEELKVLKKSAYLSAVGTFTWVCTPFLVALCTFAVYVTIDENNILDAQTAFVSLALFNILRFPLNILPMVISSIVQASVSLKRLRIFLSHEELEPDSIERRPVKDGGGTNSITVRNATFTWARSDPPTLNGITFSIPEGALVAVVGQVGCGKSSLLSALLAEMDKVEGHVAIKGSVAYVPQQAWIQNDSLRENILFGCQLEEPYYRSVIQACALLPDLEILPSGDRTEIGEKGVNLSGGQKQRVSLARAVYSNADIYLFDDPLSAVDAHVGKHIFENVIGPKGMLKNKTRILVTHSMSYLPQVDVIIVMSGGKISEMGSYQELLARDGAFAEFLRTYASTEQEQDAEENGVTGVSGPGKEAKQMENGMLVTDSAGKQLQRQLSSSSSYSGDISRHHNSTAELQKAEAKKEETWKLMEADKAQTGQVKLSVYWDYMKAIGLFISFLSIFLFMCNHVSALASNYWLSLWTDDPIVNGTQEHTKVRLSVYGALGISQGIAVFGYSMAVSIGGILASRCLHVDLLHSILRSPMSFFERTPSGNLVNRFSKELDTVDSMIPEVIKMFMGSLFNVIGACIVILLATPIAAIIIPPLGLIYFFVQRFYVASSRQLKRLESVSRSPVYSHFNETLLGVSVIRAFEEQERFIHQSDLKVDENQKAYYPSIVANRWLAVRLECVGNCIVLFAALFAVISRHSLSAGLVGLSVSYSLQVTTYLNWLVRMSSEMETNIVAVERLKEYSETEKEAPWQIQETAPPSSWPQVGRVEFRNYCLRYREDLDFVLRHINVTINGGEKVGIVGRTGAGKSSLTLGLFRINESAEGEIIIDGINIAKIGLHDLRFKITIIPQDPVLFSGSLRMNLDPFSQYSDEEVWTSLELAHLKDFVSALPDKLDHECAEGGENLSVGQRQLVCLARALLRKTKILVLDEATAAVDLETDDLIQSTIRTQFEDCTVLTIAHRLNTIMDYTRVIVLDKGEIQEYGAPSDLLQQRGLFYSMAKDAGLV

Question: For CSc1ccc(/C=C2/C(C)=C(CC(=O)O)c3cc(F)ccc32)cc1 [SS, sulindac sulfide], which IC50 is on record?
Answer: 5.6 µM
